Laboratory results as given in article PMC4663080 (Journal of enzyme inhibition and medicinal chemistry, 2010).

How the values were obtained:
[1] = target: T1, Electrophorus electricus AChE (Electrophorus electricus, UniProt O42275); type: biochemical
AChE [2] = conditions: rat synaptosomal membrane as enzyme source; cited from earlier work
[3] = target: T1, Electrophorus electricus AChE; assay: Steady-state enzyme kinetics of AChE in the presence of nantenine; type: biochemical
AChE [4] = target: AChE (Electrophorus electricus, UniProt O42275); assay: TLC anticholinesterase bioautographic assay; type: biochemical; conditions: compared with galanthamine (1)
Sequence of AChE (Electrophorus electricus, UniProt O42275) (O42275 24-633): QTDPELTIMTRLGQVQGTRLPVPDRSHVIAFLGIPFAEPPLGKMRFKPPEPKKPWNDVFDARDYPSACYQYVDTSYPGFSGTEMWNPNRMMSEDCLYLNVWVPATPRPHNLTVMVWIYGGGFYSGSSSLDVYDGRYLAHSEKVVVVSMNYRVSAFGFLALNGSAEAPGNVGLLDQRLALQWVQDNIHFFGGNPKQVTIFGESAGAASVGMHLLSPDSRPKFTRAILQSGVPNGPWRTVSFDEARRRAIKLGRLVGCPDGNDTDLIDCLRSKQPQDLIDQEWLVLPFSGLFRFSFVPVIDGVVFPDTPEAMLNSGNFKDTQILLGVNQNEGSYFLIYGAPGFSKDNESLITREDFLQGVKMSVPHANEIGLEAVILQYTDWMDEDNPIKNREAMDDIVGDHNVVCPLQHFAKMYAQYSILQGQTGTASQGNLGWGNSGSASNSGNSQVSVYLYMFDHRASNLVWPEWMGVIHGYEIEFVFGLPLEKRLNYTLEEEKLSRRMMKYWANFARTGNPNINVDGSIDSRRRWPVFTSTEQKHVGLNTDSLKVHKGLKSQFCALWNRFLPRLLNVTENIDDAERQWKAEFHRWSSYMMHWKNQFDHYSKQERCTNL

T1 sequence (O42275 24-633): as above

Row | SMILES | fold less active than nantenine (AChE inhibition) [1] | activity in AChE assay (AChE [2]) | Ki [3] [µM] | mode of inhibition ([3]; Lineweaver-Burk plot) | activity in TLC anticholinesterase bioautographic assay (AChE [4])
1 | COc1cc2c(c(-c3ccc4c(c3)OCO4)c1OC)CN(C)CC2 [Compound 15a, 8-(benzo[d][1,3]dioxol-5-yl)-6,7-dimethoxy-2-methyl-1,2,3,4-tetrahydroisoquinoline] | approximately two-fold |  |  |  | 
2 | COc1cc2c3c(c1OC)-c1cc4c(cc1CC3N(C)CC2)OCO4 (stereo not drawn) [Nantenine (8), nantenine] |  | inactive | 18.7 | mixed inhibition | showed activity
3 | COc1cc2c(c(-c3ccc4c(c3)OCO4)c1OC)C(C)N(C)CC2 (stereo not drawn) [Compound 15b, 8-(benzo[d][1,3]dioxol-5-yl)-6,7-dimethoxy-1,2-dimethyl-1,2,3,4-tetrahydroisoquinoline] | approximately two-fold |  |  |  | 
